The kinase profiling compilation of Christmann-Franck et al. (2016)
Where “and” joins values, the source holds several entries; their conditions need not be identical. Identical values can stand only once.

Tests used:
[1] = target: RIOK3 (human) (UniProt O14730); experiment: KINOMEscan competition binding; details: compound 10.0 µM
[2] = target: GAK (human) (UniProt O14976); experiment: KINOMEscan competition binding; details: compound 10.0 µM
[3] = target: SRPK1 (human) (UniProt Q96SB4); experiment: KINOMEscan competition binding; details: compound 10.0 µM
[4] = test system: FLT3 (human), P36888 [N841I]; experiment: KINOMEscan competition binding; details: compound 10.0 µM
[5] = test system: EGFR (human), P00533 [P753S; 747-752 del]; experiment: KINOMEscan competition binding; details: compound 10.0 µM
[6] = test system: EGFR (human), P00533 [G719C; 746-750 del]; experiment: KINOMEscan competition binding; details: compound 10.0 µM
[7] = target: RPS6KA6 KD2 (human) (UniProt Q9UK32); experiment: KINOMEscan competition binding; details: compound 10.0 µM
[8] = test system: ABL1 (human), P00519 [F317L]; experiment: KINOMEscan competition binding; details: compound 10.0 µM
[9] = test system: FLT3 (human), P36888 [D835Y]; experiment: KINOMEscan competition binding; details: compound 10.0 µM
[10] = target: FRK (human) (UniProt P42685); experiment: KINOMEscan competition binding; details: compound 10.0 µM
[11] = test system: KIT (human), P10721 [D816V]; experiment: KINOMEscan competition binding; details: compound 10.0 µM
[12] = test system: EGFR (human), P00533 [747-751 del / S ins]; experiment: KINOMEscan competition binding; details: compound 10.0 µM
[13] = target: SRPK3 (human) (UniProt Q9UPE1); experiment: KINOMEscan competition binding; details: compound 10.0 µM
[14] = test system: EGFR (human), P00533 [L861Q]; experiment: KINOMEscan competition binding; details: compound 10.0 µM
[15] = test system: EGFR (human), P00533 [A750P; 747-749 del]; experiment: KINOMEscan competition binding; details: compound 10.0 µM
[16] = test system: FLT3 (human), P36888 [D835H]; experiment: KINOMEscan competition binding; details: compound 10.0 µM
[17] = test system: EGFR (human), P00533 [L858R]; experiment: KINOMEscan competition binding; details: compound 10.0 µM
[18] = target: SLK (human) (UniProt Q9H2G2); experiment: KINOMEscan competition binding; details: compound 10.0 µM
[19] = target: BLK (human) (UniProt P51451); experiment: KINOMEscan competition binding; details: compound 10.0 µM
[20] = target: ULK1 (human) (UniProt O75385); experiment: KINOMEscan competition binding; details: compound 10.0 µM
[21] = target: KIT (human) (UniProt P10721); experiment: KINOMEscan competition binding; details: compound 10.0 µM
[22] = target: BMP2K (human) (UniProt Q9NSY1); experiment: KINOMEscan competition binding; details: compound 10.0 µM
[23] = test system: KIT (human), P10721 [V559D]; experiment: KINOMEscan competition binding; details: compound 10.0 µM
[24] = test system: FLT3 (human), P36888 [ITD]; experiment: KINOMEscan competition binding; details: compound 10.0 µM
[25] = target: LCK (human) (UniProt P06239); experiment: KINOMEscan competition binding; details: compound 10.0 µM
[26] = target: CSF1R (human) (UniProt P07333); experiment: KINOMEscan competition binding; details: compound 10.0 µM
[27] = target: PDGFRB (human) (UniProt P09619); experiment: KINOMEscan competition binding; details: compound 10.0 µM
[28] = test system: ABL1 (human), P00519 [F317I]; experiment: KINOMEscan competition binding; details: compound 10.0 µM
[29] = target: RIOK1 (human) (UniProt Q9BRS2); experiment: KINOMEscan competition binding; details: compound 10.0 µM
[30] = target: TNK2 (human) (UniProt Q07912); experiment: KINOMEscan competition binding; details: compound 10.0 µM
[31] = target: PIP5K1A (human) (UniProt Q99755); experiment: KINOMEscan competition binding; details: compound 10.0 µM
[32] = target: TYK2 JH2 pseudokinase (human) (UniProt P29597); experiment: KINOMEscan competition binding; details: compound 10.0 µM
[33] = target: SIK1 (human) (UniProt P57059); experiment: KINOMEscan competition binding; details: compound 10.0 µM
[34] = target: RPS6KA1 KD2 (human) (UniProt Q15418); experiment: KINOMEscan competition binding; details: compound 10.0 µM
[35] = target: CHEK1 (human) (UniProt O14757); experiment: KINOMEscan competition binding; details: compound 10.0 µM
[36] = test system: EGFR (human), P00533 [752-759 del]; experiment: KINOMEscan competition binding; details: compound 10.0 µM
[37] = target: SIK2 (human) (UniProt Q9H0K1); experiment: KINOMEscan competition binding; details: compound 10.0 µM
[38] = target: TTK (human) (UniProt P33981); experiment: SelectScreen, TR FRET
[39] = target: DAPK2 (human) (UniProt Q9UIK4); experiment: KINOMEscan competition binding; details: compound 10.0 µM
[40] = target: INSRR (human) (UniProt P14616); experiment: KINOMEscan competition binding; details: compound 10.0 µM
[41] = target: DCLK1 (human) (UniProt O15075); experiment: KINOMEscan competition binding; details: compound 10.0 µM
[42] = target: PLK4 (human) (UniProt O00444); experiment: KINOMEscan competition binding; details: compound 10.0 µM
[43] = target: TTK (human) (UniProt P33981); experiment: KINOMEscan competition binding
[44] = target: MYLK (human) (UniProt Q15746); experiment: KINOMEscan competition binding; details: compound 10.0 µM
[45] = target: MKNK2 (human) (UniProt Q9HBH9); experiment: KINOMEscan competition binding; details: compound 10.0 µM
[46] = target: ULK2 (human) (UniProt Q8IYT8); experiment: KINOMEscan competition binding; details: compound 10.0 µM
[47] = target: TNK1 (human) (UniProt Q13470); experiment: KINOMEscan competition binding; details: compound 10.0 µM
[48] = target: DAPK3 (human) (UniProt O43293); experiment: KINOMEscan competition binding; details: compound 10.0 µM
[49] = target: IGF1R (human) (UniProt P08069); experiment: KINOMEscan competition binding; details: compound 10.0 µM
[50] = target: PTK2 (human) (UniProt Q05397); experiment: KINOMEscan competition binding; details: compound 10.0 µM
[51] = target: PTK2B (human) (UniProt Q14289); experiment: KINOMEscan competition binding; details: compound 10.0 µM
[52] = target: MET (human) (UniProt P08581); experiment: KINOMEscan competition binding; details: compound 10.0 µM
[53] = target: PLK1 (human) (UniProt P53350); experiment: KINOMEscan competition binding; details: compound 10.0 µM
[54] = target: RPS6KA2 KD2 (human) (UniProt Q15349); experiment: KINOMEscan competition binding; details: compound 10.0 µM
[55] = test system: EGFR (human), P00533 [G719S]; experiment: KINOMEscan competition binding; details: compound 10.0 µM
[56] = target: STK33 (human) (UniProt Q9BYT3); experiment: KINOMEscan competition binding; details: compound 10.0 µM
[57] = target: ALK (human) (UniProt Q9UM73); experiment: KINOMEscan competition binding; details: compound 10.0 µM
[58] = target: EGFR (human) (UniProt P00533); experiment: KINOMEscan competition binding; details: compound 10.0 µM
[59] = target: FGFR4 (human) (UniProt P22455); experiment: KINOMEscan competition binding; details: compound 10.0 µM
[60] = target: CAMKK2 (human) (UniProt Q96RR4); experiment: KINOMEscan competition binding; details: compound 10.0 µM
[61] = target: PLK3 (human) (UniProt Q9H4B4); experiment: KINOMEscan competition binding; details: compound 10.0 µM
[62] = target: FER (human) (UniProt P16591); experiment: KINOMEscan competition binding; details: compound 10.0 µM
[63] = target: INSR (human) (UniProt P06213); experiment: KINOMEscan competition binding; details: compound 10.0 µM

Chain of TTK (human) (P33981 whole entry, looked up): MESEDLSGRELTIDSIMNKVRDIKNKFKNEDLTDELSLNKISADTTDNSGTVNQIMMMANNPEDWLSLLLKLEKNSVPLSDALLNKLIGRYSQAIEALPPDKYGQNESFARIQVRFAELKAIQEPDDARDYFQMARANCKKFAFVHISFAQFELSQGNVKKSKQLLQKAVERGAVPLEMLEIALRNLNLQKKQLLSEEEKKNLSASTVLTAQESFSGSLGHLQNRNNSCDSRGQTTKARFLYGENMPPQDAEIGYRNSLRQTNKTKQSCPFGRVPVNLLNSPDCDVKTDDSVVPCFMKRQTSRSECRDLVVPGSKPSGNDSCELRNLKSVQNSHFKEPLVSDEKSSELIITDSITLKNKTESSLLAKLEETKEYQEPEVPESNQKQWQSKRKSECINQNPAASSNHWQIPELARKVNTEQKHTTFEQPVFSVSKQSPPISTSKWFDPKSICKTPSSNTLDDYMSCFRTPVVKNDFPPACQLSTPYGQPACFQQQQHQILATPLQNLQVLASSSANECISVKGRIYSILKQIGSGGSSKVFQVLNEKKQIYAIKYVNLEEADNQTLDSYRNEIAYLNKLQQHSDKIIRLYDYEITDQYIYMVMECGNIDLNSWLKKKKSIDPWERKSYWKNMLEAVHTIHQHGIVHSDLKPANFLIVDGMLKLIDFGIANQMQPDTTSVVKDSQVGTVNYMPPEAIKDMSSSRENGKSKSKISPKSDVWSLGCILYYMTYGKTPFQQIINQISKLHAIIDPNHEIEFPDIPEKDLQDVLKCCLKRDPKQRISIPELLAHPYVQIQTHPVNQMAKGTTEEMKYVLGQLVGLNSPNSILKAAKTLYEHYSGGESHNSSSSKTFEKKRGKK
Chain of GAK (human) (O14976 whole entry, looked up): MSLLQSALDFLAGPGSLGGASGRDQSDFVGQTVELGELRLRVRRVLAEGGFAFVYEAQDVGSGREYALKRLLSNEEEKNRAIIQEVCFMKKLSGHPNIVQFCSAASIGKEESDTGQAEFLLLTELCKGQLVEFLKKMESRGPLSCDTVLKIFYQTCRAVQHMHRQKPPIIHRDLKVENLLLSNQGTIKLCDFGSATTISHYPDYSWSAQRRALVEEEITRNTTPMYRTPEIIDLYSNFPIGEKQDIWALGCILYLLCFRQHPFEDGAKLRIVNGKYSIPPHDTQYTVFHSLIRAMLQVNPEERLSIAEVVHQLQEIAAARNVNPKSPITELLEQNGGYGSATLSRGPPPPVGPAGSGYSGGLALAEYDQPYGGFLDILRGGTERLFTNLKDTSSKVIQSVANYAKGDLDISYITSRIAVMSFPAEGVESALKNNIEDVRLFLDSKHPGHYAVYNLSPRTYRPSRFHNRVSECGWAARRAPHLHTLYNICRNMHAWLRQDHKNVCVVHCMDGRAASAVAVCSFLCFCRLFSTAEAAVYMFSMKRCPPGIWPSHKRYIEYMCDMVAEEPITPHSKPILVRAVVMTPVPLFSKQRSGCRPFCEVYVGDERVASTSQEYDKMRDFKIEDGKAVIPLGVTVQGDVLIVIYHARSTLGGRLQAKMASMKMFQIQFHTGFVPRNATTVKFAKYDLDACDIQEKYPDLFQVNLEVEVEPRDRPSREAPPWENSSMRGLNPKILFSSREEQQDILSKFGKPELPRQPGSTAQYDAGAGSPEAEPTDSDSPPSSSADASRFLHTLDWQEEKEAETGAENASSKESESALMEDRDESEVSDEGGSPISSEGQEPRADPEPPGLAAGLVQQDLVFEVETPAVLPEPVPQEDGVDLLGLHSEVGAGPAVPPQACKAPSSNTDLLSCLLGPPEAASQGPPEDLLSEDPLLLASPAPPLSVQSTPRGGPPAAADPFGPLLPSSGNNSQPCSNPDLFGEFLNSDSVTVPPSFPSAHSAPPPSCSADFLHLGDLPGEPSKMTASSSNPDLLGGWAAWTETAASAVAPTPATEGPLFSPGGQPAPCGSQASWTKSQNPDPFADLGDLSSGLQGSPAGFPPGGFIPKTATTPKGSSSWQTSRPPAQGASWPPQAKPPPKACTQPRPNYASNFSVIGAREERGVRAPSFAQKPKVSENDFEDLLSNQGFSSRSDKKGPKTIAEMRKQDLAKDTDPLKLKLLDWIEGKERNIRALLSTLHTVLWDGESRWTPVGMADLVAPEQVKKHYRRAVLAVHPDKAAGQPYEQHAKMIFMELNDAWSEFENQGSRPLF
Chain of SLK (human) (Q9H2G2 whole entry, looked up): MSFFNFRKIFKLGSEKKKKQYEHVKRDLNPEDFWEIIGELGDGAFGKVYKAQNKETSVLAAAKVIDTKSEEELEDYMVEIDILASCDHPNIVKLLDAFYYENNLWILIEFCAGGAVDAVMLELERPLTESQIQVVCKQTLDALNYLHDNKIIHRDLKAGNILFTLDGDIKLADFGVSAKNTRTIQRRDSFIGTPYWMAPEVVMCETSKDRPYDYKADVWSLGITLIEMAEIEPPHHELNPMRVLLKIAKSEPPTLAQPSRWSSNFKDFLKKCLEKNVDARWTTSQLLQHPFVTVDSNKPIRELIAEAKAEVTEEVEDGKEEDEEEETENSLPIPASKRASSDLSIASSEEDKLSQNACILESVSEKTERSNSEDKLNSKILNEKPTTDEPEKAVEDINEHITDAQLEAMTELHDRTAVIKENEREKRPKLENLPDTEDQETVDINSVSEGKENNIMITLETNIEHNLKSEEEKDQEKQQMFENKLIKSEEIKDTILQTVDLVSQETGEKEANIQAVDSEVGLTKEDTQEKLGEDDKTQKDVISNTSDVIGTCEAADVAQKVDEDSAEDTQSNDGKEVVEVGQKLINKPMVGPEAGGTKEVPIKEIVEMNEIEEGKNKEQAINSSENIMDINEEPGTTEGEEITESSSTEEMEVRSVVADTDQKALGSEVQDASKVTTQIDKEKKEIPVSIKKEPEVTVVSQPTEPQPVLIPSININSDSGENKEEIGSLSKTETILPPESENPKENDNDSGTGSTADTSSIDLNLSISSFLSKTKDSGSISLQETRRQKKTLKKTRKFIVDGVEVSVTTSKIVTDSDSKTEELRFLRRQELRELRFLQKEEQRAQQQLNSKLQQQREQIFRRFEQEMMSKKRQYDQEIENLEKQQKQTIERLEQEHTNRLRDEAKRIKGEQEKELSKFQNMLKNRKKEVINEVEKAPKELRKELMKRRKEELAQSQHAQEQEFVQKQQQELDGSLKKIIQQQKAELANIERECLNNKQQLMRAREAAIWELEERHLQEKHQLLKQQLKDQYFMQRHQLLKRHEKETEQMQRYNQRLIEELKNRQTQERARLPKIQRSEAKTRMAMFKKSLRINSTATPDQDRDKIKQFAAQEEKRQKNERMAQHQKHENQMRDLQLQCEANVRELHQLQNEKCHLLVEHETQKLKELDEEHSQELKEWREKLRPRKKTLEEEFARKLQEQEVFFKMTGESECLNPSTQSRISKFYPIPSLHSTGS
Chain of BLK (human) (P51451 whole entry, looked up): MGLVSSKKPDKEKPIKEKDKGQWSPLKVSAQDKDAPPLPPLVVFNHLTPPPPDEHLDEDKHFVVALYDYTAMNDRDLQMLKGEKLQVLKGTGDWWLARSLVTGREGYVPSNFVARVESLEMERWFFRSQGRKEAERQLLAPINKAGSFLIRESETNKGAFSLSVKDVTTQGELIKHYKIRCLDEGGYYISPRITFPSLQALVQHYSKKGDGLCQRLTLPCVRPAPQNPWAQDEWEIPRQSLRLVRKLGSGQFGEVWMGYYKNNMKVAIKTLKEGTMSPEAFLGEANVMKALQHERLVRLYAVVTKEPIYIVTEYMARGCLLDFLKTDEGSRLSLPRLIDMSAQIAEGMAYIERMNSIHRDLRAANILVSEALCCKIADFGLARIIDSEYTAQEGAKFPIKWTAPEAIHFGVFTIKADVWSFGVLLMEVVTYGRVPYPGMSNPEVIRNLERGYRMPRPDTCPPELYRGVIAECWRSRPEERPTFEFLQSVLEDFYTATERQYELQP
Chain of CHEK1 (human) (O14757 whole entry, looked up): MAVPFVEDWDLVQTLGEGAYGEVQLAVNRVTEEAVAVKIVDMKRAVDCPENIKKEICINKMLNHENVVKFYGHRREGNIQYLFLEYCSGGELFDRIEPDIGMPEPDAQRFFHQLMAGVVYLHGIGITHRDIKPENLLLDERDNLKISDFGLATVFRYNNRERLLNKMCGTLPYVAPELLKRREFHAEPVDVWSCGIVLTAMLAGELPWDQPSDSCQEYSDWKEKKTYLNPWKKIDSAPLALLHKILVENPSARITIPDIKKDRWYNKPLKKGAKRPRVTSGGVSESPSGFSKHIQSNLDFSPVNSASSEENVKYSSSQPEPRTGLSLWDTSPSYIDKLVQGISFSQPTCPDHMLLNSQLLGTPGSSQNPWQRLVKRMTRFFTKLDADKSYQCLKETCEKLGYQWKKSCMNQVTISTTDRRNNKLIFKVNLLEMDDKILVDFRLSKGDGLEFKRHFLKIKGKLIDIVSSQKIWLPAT
Chain of RIOK3 (human) (O14730 whole entry, looked up): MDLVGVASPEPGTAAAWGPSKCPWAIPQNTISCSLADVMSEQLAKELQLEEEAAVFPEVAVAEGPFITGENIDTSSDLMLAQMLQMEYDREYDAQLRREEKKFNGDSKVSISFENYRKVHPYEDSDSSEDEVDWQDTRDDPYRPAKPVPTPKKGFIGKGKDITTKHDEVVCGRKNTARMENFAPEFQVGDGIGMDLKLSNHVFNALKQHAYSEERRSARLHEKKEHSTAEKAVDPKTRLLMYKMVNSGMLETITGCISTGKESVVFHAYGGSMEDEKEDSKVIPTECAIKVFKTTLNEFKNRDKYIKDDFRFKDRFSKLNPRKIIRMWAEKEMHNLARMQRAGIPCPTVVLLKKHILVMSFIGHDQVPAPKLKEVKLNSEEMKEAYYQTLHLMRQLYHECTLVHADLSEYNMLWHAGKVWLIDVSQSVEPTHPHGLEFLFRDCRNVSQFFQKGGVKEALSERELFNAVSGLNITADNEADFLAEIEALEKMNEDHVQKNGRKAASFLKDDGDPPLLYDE

COc1cc(N2CCN(C)CC2)ccc1Nc1ncc2c(n1)N(c1ccccc1)CCC(=O)N2
kinase still bound, per cent of control [1]: 23%
kinase still bound, per cent of control [2]: 2%
kinase still bound, per cent of control [3]: 29%
kinase still bound, per cent of control [4]: 23%
kinase still bound, per cent of control [5]: 17%
kinase still bound, per cent of control [6]: 12%
kinase still bound, per cent of control [7]: 18%
kinase still bound, per cent of control [8]: 16%
kinase still bound, per cent of control [9]: 8.6%
kinase still bound, per cent of control [10]: 2.8%
kinase still bound, per cent of control [11]: 2.4%
kinase still bound, per cent of control [12]: 11%
kinase still bound, per cent of control [13]: 30%
kinase still bound, per cent of control [14]: 21%
kinase still bound, per cent of control [15]: 5.2%
kinase still bound, per cent of control [16]: 18%
kinase still bound, per cent of control [17]: 31%
kinase still bound, per cent of control [18]: 29%
kinase still bound, per cent of control [19]: 21%
kinase still bound, per cent of control [20]: 24%
kinase still bound, per cent of control [21]: 5.7%
kinase still bound, per cent of control [22]: 15%
kinase still bound, per cent of control [23]: 4.6%
kinase still bound, per cent of control [24]: 31%
kinase still bound, per cent of control [25]: 25%
kinase still bound, per cent of control [26]: 16%
kinase still bound, per cent of control [27]: 1.1%
kinase still bound, per cent of control [28]: 17%
kinase still bound, per cent of control [29]: 27%
kinase still bound, per cent of control [30]: 5%
kinase still bound, per cent of control [31]: 34%
kinase still bound, per cent of control [32]: 28%
kinase still bound, per cent of control [33]: 12%
kinase still bound, per cent of control [34]: 33%
kinase still bound, per cent of control [35]: 27%
kinase still bound, per cent of control [36]: 14%
kinase still bound, per cent of control [37]: 26%

COc1cc(N2CCC(C)(O)CC2)ccc1Nc1ncc2c(n1)N(C1CCCC1)CCC(=O)N2C
IC50 [38]: 254 nM
kinase still bound, per cent of control [39]: 29%
kinase still bound, per cent of control [40]: 30%
kinase still bound, per cent of control [2]: 1.2%
kinase still bound, per cent of control [5]: 6.6%
kinase still bound, per cent of control [6]: 10%
kinase still bound, per cent of control [41]: 20%
kinase still bound, per cent of control [42]: 8.2%
Kd [43]: 20.5 nM
kinase still bound, per cent of control ([43]; compound 10.0 µM): 3.8%
kinase still bound, per cent of control [44]: 31%
kinase still bound, per cent of control [45]: 13%
kinase still bound, per cent of control [46]: 26%
kinase still bound, per cent of control [47]: 11%
kinase still bound, per cent of control [48]: 34%
kinase still bound, per cent of control [12]: 6.2%
kinase still bound, per cent of control [49]: 14%
kinase still bound, per cent of control [50]: 6.2%
kinase still bound, per cent of control [51]: 3.1%
kinase still bound, per cent of control [14]: 6.6%
kinase still bound, per cent of control [15]: 4%
kinase still bound, per cent of control [17]: 17%
kinase still bound, per cent of control [52]: 9.1%
kinase still bound, per cent of control [53]: 0.2%
kinase still bound, per cent of control [54]: 30%
kinase still bound, per cent of control [18]: 31%
kinase still bound, per cent of control [55]: 14%
kinase still bound, per cent of control [56]: 12%
kinase still bound, per cent of control [57]: 22%
kinase still bound, per cent of control [58]: 17% and 29%
kinase still bound, per cent of control [59]: 34%
kinase still bound, per cent of control [60]: 20%
kinase still bound, per cent of control [61]: 1.8%
kinase still bound, per cent of control [36]: 10%
kinase still bound, per cent of control [62]: 18%
kinase still bound, per cent of control [63]: 28%
